# Source: patent publication US11236059B2, “Targeted cytotoxic ratjadone derivatives and conjugates thereof” (HELMHOLTZ-ZENTRUM FUER INFEKTIONSFORSCHUNG GMBH, priority 2017, dated 2022)
# Where two headings read alike, the source gives them in different places.
# Columns and labels:
# [1] = system: KB 3.1 (DSMZ ACC 158) cells; test: cells; conditions: Homo sapiens, KB 3-1, 120 h
# [2] = system: SKOV-3 (DSMZ ATCC HTB 77) cells; test: cells; assay type: cell-based; conditions: Homo sapiens, SK-OV-3, 120 h
# Description: (§1) 60 μL of serial dilutions of the test compound were given to 120 μL of suspended cells (50.000/mL) in wells of 96-well plates. After 5 days of incubation growth inhibition (IC50) was determined using an MTT assay.^[64]
# [3] = system: MCF-7 (DSMZ ACC 115) cells; test: cells; assay type: cell-based; conditions: Homo sapiens, MCF7, 120 h
# Description: as §1
# [4] = system: A549 (DSMZ ACC 107) cells; test: cells; assay type: cell-based; conditions: Homo sapiens, A549, 120 h
# Description: as §1
# [5] = target: T1, CRM1 (Homo sapiens, UniProt O14980); test: Monitoring export inhibitory activity (translocation biosensor, HeLaRevBio cells); assay type: cell-based
# T1 construct: HeLa cells stably expressing a fluorescent translocation biosensor (HeLaRevBio); endogenous in cells; host or cells: HeLa (HeLaRevBio in A7; HeLa in A8)
# T1 sequence (O14980 whole entry): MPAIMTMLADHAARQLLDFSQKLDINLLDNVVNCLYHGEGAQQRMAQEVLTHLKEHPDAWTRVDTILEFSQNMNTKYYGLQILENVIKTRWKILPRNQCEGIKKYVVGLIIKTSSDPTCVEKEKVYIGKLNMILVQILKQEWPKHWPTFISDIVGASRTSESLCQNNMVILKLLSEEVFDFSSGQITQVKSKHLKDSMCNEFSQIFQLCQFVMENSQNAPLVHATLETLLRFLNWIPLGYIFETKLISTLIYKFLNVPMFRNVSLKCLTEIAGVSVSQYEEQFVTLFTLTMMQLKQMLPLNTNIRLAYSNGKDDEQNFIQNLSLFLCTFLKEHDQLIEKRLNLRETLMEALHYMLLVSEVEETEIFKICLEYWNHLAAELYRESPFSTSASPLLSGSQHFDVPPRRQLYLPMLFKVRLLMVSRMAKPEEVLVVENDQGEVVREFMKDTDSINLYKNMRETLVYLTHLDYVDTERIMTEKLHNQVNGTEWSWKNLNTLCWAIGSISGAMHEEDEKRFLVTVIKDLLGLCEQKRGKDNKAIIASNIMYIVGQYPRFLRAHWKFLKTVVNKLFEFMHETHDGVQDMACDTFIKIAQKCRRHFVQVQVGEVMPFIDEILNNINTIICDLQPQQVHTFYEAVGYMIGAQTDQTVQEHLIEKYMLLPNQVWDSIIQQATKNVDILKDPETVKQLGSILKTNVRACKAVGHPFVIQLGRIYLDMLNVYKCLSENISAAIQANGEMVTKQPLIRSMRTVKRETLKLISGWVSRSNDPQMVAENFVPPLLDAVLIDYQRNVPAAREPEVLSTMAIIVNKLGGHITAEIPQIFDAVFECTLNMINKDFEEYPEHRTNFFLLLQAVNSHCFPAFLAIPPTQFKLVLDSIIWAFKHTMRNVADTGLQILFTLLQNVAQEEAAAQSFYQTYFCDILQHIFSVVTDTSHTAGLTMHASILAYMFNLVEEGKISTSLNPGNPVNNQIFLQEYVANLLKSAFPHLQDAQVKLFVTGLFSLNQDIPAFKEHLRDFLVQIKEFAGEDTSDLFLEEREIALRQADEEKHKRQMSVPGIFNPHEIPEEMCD
# Description: Export inhibitory ability of compounds was evaluated with the translocation biosensor system. This cellular assay depends on a recombinantly expressed fusion protein consisting of a nuclear localization signal (SV40-NLS), glutathione S-transferase (GST), green fluorescent protein (GFP) and a nuclear export signal (HIV1-RevNES). Due to the two transport signals (NLS/NES), the biosensor is permanently shuttling between nucleus and cytoplasm but resides prominently in the cytoplasm due to a comparatively stronger NES. Export inhibiting compound induce a nuclear accumulation of the GFP-signal^[65,66] Cell lines were maintained as recommended by the American Type Culture Collection in DMEM containing 5% glutamine (Thermo Fisher Scientific, Waltham, USA) supplemented with 10% FBS (Thermo Fisher Scientific, Waltham, USA). For quantifying the nuclear export inhibitory effect, HeLa cells stably expressing a fluorescent translocation biosensor (HeLaRevBio)^[67] were seeded into black 96 well μclear plates (Greiner, Germany). They next day compounds were added covering an appropriate concentration range. After 1h of incubation, cells were fixed in 4% PFA for 10 min and permeabilized with 0.1% Triton X 100 in PBS for 5 min. After washing with PBS nuclei were labeled with Hoechst H33342 (30 min 10 μg/ml). The intracellular distribution of the biosensor-dependent GFP signal was quantitatively evaluated with the high content imaging system ImageXpress MicroXLS (Molecular Devices, Sunnyvale, USA). By using the translocation enhanced application module (Molecular Devices, Sunnyvale, USA) the GFP-intensity was quantified in the cytoplasm and nuclear region. As final readout the difference of Mean Inner and Mean Outer Intensity was calculated. IC50s of nuclear export inhibition were calculated using Sigma Plot with four parameter logistics curve regression (Systat Software GmbH, Erkrath, Germany). […] The following day compounds were added at 125 nM final concentration.
# [6] = system: KB 3.1 (DSMZ ACC 158) cells; test: Cell proliferation assay under folate free conditions; assay type: cell-based; conditions: RPMI-medium without folic acid + 10% dialyzed fetal calf serum; MTT assay after 1, 2 and 5 days (day of the value not given); read-out: IC50 [nM] KB 3.1 (Folate-Ratjadone Conjugates)
# Description: KB 3.1 (DSMZ ACC 158) cells were cultivated at 37° C. and 10% C002 in RMPI-medium without folic acid (Gibco) with 10% fetal calf serum (Gibco). 120 μL of suspended cells (100.000/mL) were seeded in wells of 96-well plates and after 24 h at 37° C. and 10% CO2 the medium was removed, the cells were washed with PBS and RPMI-medium without folic acid (Gibco)+10% dialyzed fetal calf serum (Sigma) were added to the cells, before after additional 24 h at 37° C. and 10% C002 60 μL of serial dilutions of the test compound were given to cells. After 1, 2 and 5 days of incubation growth inhibition (IC50) was determined using an MTT assay.^[64]
# [7] = read-out: IC50 [nM] KB-3.1, growth inhibition, 5 days of incubation, MTT assay
# [8] = read-out: IC50 [nM] SK-OV-3, growth inhibition, 5 days of incubation, MTT assay
# [9] = read-out: IC50 [nM] MCF-7, growth inhibition, 5 days of incubation, MTT assay
# [10] = read-out: IC50 [nM] A-549, growth inhibition, 5 days of incubation, MTT assay
# [11] = HeLa cells stably expressing translocation biosensor, 1h of incubation, read-out: IC50 [nM] CRM1 (nuclear export inhibition)
smiles,measurement,setting,value
"C/C=C/[C@@H]1O[C@H](C(=O)/C=C/C=C(\C)C[C@@H](C)/C=C(C)\C=C\[C@H]2CC=CC(=O)O2)CC(=O)[C@@H]1C [16,19-Dioxo-Ratjadone 10, (R)-6-((R,1E,3Z,7E,9E)-3,5,7-trimethyl-11-((2S,5R,6S)-5-methyl-4-oxo-6-((E)-prop-1-en-1-yl)tetrahydro-2H-pyran-2-yl)-11-oxoundeca-1,3,7,9-tetraen-1-yl)-5,6-dihydro-2H-pyran-2-one]",IC50,[1]; [7],3.98 nM
same,IC50,[2]; [8],1.59 nM
same,IC50,[3]; [9],2.87 nM
same,IC50,[4]; [10],9.72 nM
same,IC50,[5]; [11],17.5 nM
"C#CCNC1C[C@@H]([C@H](O)/C=C/C=C(\C)C[C@@H](C)/C=C(C)\C=C\[C@H]2CC=CC(=O)O2)O[C@@H](/C=C/C)[C@H]1C (stereo partly drawn) [N-Propargyl-19-amino-Ratjadone 42, (6R)-6-((1E,3Z,5R,7E,9E,11R)-11-hydroxy-3,5,7-trimethyl-11-((2S,5S,6S)-5-methyl-6-((E)-prop-1-en-1-yl)-4-(prop-2-yn-1-ylamino)tetrahydro-2H-pyran-2-yl)undeca-1,3,7,9-tetraen-1-yl)-5,6-dihydro-2H-pyran-2-one]",IC50,[1]; [7],1.23 nM
same,IC50,[2]; [8],2.63 nM
same,IC50,[3]; [9],1.31 nM
same,IC50,[4]; [10],1.12 nM
same,IC50,[5]; [11],18.3 nM
"C#CCCC(=O)NCCSSCCC(=O)N[C@H](/C=C/C=C(\C)C[C@@H](C)/C=C(C)\C=C\[C@H]1CC=CC(=O)O1)[C@@H]1C[C@@H](O)[C@H](C)[C@H](/C=C/C)O1 [N-(2-((3-(((1R,2E,4E,7R,8Z,10E)-1-((2S,4R,5S,6S)-4-hydroxy-5-methyl-6-((E)-prop-1-en-1-yl)tetrahydro-2H-pyran-2-yl)-5,7,9-trimethyl-11-((R)-6-oxo-3,6-dihydro-2H-pyran-2-yl)undeca-2,4,8,10-tetraen-1-yl)amino)-3-oxopropyl)disulfaneyl)-ethyl)pent-4-ynamide]",IC50,[1]; [7],1.86 nM
same,IC50,[2]; [8],1.09 nM
same,IC50,[3]; [9],0.17 nM
same,IC50,[4]; [10],0.86 nM
"C#CCCC(=O)N[C@H](/C=C/C=C(\C)C[C@@H](C)/C=C(C)\C=C\[C@H]1CC=CC(=O)O1)[C@@H]1C[C@@H](O)[C@H](C)[C@H](/C=C/C)O1 [Compound 22, N-((1R,2E,4E,7R,8Z,10E)-1-((2S,4R,5S,6S)-4-hydroxy-5-methyl-6-((E)-prop-1-en-1-yl)tetrahydro-2H-pyran-2-yl)-5,7,9-trimethyl-11-((R)-6-oxo-3,6-dihydro-2H-pyran-2-yl)undeca-2,4,8,10-tetraen-1-yl)pent-4-ynamide]",IC50,[1]; [7],1.05 nM
same,IC50,[2]; [8],0.44 nM
same,IC50,[3]; [9],0.4 nM
same,IC50,[4]; [10],0.58 nM
same,IC50,[5]; [11],23.2 nM
"C/C=C/[C@@H]1O[C@H]([C@@H](/C=C/C=C(\C)C[C@@H](C)/C=C(C)\C=C\[C@H]2CC=CC(=O)O2)NC(=O)CCSSc2ccccn2)C[C@@H](O)[C@@H]1C [2-PySS(CH2)2(CO)NH-Ratja 35, N-((1R,2E,4E,7R,8Z,10E)-1-((2S,4R,5S,6S)-4-Hydroxy-5-methyl-6-((E)-prop-1-en-1-yl)tetrahydro-2H-pyran-2-yl)-5,7,9-trimethyl-11-((R)-6-oxo-3,6-dihydro-2H-pyran-2-yl)undeca-2,4,8,10-tetraen-1-yl)-3-(pyridin-2-yldisulfaneyl)propanamide]",IC50,[1]; [7],8.8 nM
same,IC50,[2]; [8],24.6 nM
same,IC50,[3]; [9],26 nM
same,IC50,[4]; [10],30.6 nM
same,IC50,[5]; [11],44.1 nM
"C#CCCOC(=O)N[C@@H](/C=C/C=C(\C)C[C@@H](C)/C=C(C)\C=C\[C@H]1CC=CC(=O)O1)[C@@H]1C[C@@H](O)[C@H](C)[C@H](/C=C/C)O1 [Compound 25, But-3-yn-1-yl ((1S,2E,4E,7R,8Z,10E)-1-((2S,4R,5S,6S)-4-hydroxy-5-methyl-6-((E)-prop-1-en-1-yl)tetrahydro-2H-pyran-2-yl)-5,7,9-trimethyl-11-((R)-6-oxo-3,6-dihydro-2H-pyran-2-yl)undeca-2,4,8,10-tetraen-1-yl)carbamate]",IC50,[1]; [7],1.23 nM
same,IC50,[2]; [8],1.2 nM
same,IC50,[3]; [9],0.62 nM
same,IC50,[4]; [10],2.45 nM
same,IC50,[5]; [11],12 nM
"C/C=C/[C@@H]1O[C@H]([C@@H](/C=C/C=C(\C)C[C@@H](C)/C=C(C)\C=C\[C@H]2CC=CC(=O)O2)NC(=O)OC)C[C@@H](O)[C@@H]1C [16S-Amino-Ratjadone methyl carbamate 20, methyl ((1R,2E,4E,7R,8Z,10E)-1-((2S,4R,5S,6S)-4-hydroxy-5-methyl-6-((E)-prop-1-en-1-yl)tetrahydro-2H-pyran-2-yl)-5,7,9-trimethyl-11-((R)-6-oxo-3,6-dihydro-2H-pyran-2-yl)undeca-2,4,8,10-tetraen-1-yl)carbamate]",IC50,[1]; [7],8.18 nM
same,IC50,[5],23.5 nM
"C#CCCOC(=O)N[C@H](C(=O)N[C@@H](CCCNC(N)=O)C(=O)Nc1ccc(COC(=O)N[C@H](/C=C/C=C(\C)C[C@@H](C)/C=C(C)\C=C\[C@H]2CC=CC(=O)O2)[C@@H]2C[C@@H](O)[C@H](C)[C@H](/C=C/C)O2)cc1)C(C)C [But-3-yn-1-yl ((S)-1-(((S)-1-((4-(((((1R,2E,4E,7R,8Z,10E)-1-((2S,4R,5S,6S)-4-hydroxy-5-methyl-6-((E)-prop-1-en-1-yl)tetrahydro-2H-pyran-2-yl)-5,7,9-trimethyl-11-((R)-6-oxo-3,6-dihydro-2H-pyran-2-yl)undeca-2,4,8,10-tetraen-1-yl)carbamoyl)-oxy)methyl)phenyl)amino)-1-oxo-5-ureidopentan-2-yl)amino)-3-methyl-1-oxobutan-2-yl)carbamate]",IC50,[1]; read-out: IC50 [nM] KB-3.1,9.2 nM
same,IC50,"[2]; growth inhibition, 5 days of incubation, MTT assay, read-out: IC50 [nM] SK-OV-3",13.6 nM
same,IC50,"[3]; growth inhibition, 5 days of incubation, MTT assay, read-out: IC50 [nM] MCF-7",12.5 nM
same,IC50,"[4]; growth inhibition, 5 days of incubation, MTT assay, read-out: IC50 [nM] A-549",25.1 nM
"C/C=C/[C@@H]1O[C@H]([C@H](/C=C/C=C(\C)C[C@@H](C)/C=C(C)\C=C\[C@H]2CC=CC(=O)O2)NC(=O)OC)C[C@@H](O)[C@@H]1C [16R-Amino-Ratjadone methyl carbamate 19, methyl ((1S,2E,4E,7R,8Z,10E)-1-((2S,4R,5S,6S)-4-hydroxy-5-methyl-6-((E)-prop-1-en-1-yl)tetrahydro-2H-pyran-2-yl)-5,7,9-trimethyl-11-((R)-6-oxo-3,6-dihydro-2H-pyran-2-yl)undeca-2,4,8,10-tetraen-1-yl)carbamate]",IC50,[1]; [7],2.53 nM
same,IC50,[5],12.5 nM
C/C=C/[C@@H]1O[C@H](C(/C=C/C=C(\C)C[C@@H](C)/C=C\C=C(/C)[C@H]2CC=CC(=O)O2)NC(=O)OCc2ccc(NC(=O)[C@H](CCCNC(N)=O)NC(=O)[C@@H](NC(=O)OC[C@@H]3[C@@H]4CCc5nnn(-c6ccc(C(=O)NCCCC[C@H](NC(=O)[C@H](CC(=O)O)NC(=O)[C@H](CC(=O)O)NC(=O)[C@H](CCCCNC(=O)c7ccc(-n8nnc9c8CC[C@H]8[C@@H](CC9)[C@H]8COC(=O)N[C@H](C(=O)N[C@@H](CCCNC(N)=O)C(=O)Nc8ccc(COC(=O)NC(/C=C/C=C(\C)C[C@@H](C)/C=C\C=C(/C)[C@H]9CC=CC(=O)O9)[C@@H]9C[C@@H](O)[C@H](C)[C@H](/C=C/C)O9)cc8)C(C)C)cc7)NC(=O)[C@@H](CC(=O)O)NC(=O)[C@@H](CC(=O)O)NC(=O)CC[C@H](NC(=O)c7ccc(NCc8cnc9nc(N)nc(O)c9n8)cc7)C(=O)O)C(=O)O)cc6)c5CC[C@@H]43)C(C)C)cc2)C[C@@H](O)[C@@H]1C (stereo partly drawn) [FA-4-(Val-Cit-PABA-16R-Aminoratjadone)2],IC50,[6],148 nM
